Experimental data taken from US9345241B2, “Composition having biocide activity for aqueous preparations” (Omya International AG, priority 2008, dated 2016).

Assays:
[1] = system: Methylobacterium extorquens; test: Biocidal activity of EDDM biocide in calcium carbonate slurries, plate count; format: cell-based
Description: (§1) All quoted bacterial counts (values are in cfu/ml) in the Tables herebelow are determined after 5 days following plate-out and in accordance with counting method described in “Bestimmung von aeroben mesophilen Keimen”, Schweizerisches Lebensmittelbuch, chapter 56, section 7.01, edition of 1985, revised version of 1988.
(§2) (Ethylenedioxy)dimethanol (EDDM), an aldehyde-releasing biocide, was introduced into 50 g samples of each of calcium carbonate slurry 1 and calcium carbonate slurry 2 in an amount corresponding to 1500 ppm of aldehyde-releasing EDDM biocide based on the weight of the weight of water in the slurry. In parallel, control samples of calcium carbonate slurry 1 and calcium carbonate slurry 2 were prepared in absence of EDDM.
(§3) Half of the samples of calcium carbonate slurry 1 and calcium carbonate slurry 2 were then inoculated with 1 mL of Methylobacterium extorquens, while the remaining samples where inoculated with 1 mL of Pseudomonas putida. Each of the samples was incubated at 30° C. for 72 hours. Thereafter, a 1:10 dilution in phosphate buffered saline (PBS) was plated on plate count agar (PCA). These plates were incubated at 30° C. and analysed after 5 days.

[2] = system: Pseudomonas putida; test: as above; format: cell-based
Description: as §1, §2, §3

[3] = EDDM 1500 ppm in combination with lithium
[4] = EDDM alone at 1500 ppm, no lithium

OCOCCOCO [EDDM, (Ethylenedioxy)dimethanol]
bacterial count of the suspension [1, 3]: below 10^4 cfu/ml | resistance of the strain to the biocide implemented alone [1, 4]: show resistance | bacterial count of the suspension [2, 3]: below 10^4 cfu/ml | resistance of the strain to the biocide implemented alone [2, 4]: show resistance
